Activity calls are given as the source filed them. How the calls were made is not given here.
Test system: CCRIS mutagenicity, Ames/micronucleus/aberration tests
Assay: CCRIS mutagenicity studies
[1] = Test System: AMES SALMONELLA TYPHIMURIUM, Strain/Indicator: TA100, Metabolic Activation: NONE, Method: PREINCUBATION
[2] = Test System: AMES SALMONELLA TYPHIMURIUM, Strain/Indicator: TA98, Metabolic Activation: NONE
[3] = Test System: AMES SALMONELLA TYPHIMURIUM, Strain/Indicator: TA98, Metabolic Activation: NONE, Method: STANDARD PLATE
[4] = Test System: AMES SALMONELLA TYPHIMURIUM, Strain/Indicator: TA100, Metabolic Activation: NONE, Method: STANDARD PLATE
[5] = Test System: AMES SALMONELLA TYPHIMURIUM, Strain/Indicator: TA98, Metabolic Activation: NONE, Method: PREINCUBATION

Measured: mutagenic call

Cc1ccnc2ccccc12
active: Test System: AMES SALMONELLA TYPHIMURIUM, Strain/Indicator: TA100, Metabolic Activation: RAT, LIVER, S-9, PHENOBARBITAL AND 5,6-BENZOFLAVONE, Method: PREINCUBATION active; positive | Test System: AMES SALMONELLA TYPHIMURIUM, Strain/Indicator: TA100, Metabolic Activation: RAT, LIVER, S-9, PHENOBARBITAL AND 5,6-NAPHTHOFLAVONE, Method: PREINCUBATION active; positive | Test System: AMES SALMONELLA TYPHIMURIUM, Strain/Indicator: TA100, Metabolic Activation: RAT, LIVER, S-9, Method: PREINCUBATION active; positive | Test System: UDS RODENT HEPATOCYTES, Strain/Indicator: THY INCORP (NON-S-PHASE), Metabolic Activation: NONE, Method: AUTORADIOGRAPHY active; positive

Nc1ccc(O)c2c1C(=O)C=CC2=O
inactive: Test System: Ames Salmonella typhimurium, Strain/Indicator: TA97, Metabolic Activation: None, Method: Preincubation inactive; negative | Test System: Ames Salmonella typhimurium, Strain/Indicator: TA97, Metabolic Activation: Rat, Liver, S9, Aroclor 1254, Method: Preincubation inactive; negative | Test System: Ames Salmonella typhimurium, Strain/Indicator: TA100, Metabolic Activation: None, Method: Preincubation inactive; negative | Test System: Ames Salmonella typhimurium, Strain/Indicator: TA100, Metabolic Activation: Rat, Liver, S9, Aroclor 1254, Method: Preincubation inactive; negative | Test System: Ames Salmonella typhimurium, Strain/Indicator: TA102, Metabolic Activation: None, Method: Preincubation inactive; negative
active: Test System: Ames Salmonella typhimurium, Strain/Indicator: TA98, Metabolic Activation: None, Method: Preincubation active; positive | Test System: Ames Salmonella typhimurium, Strain/Indicator: TA98, Metabolic Activation: Rat, Liver, S9, Aroclor 1254, Method: Preincubation active; positive | Test System: Ames Salmonella typhimurium, Strain/Indicator: TA102, Metabolic Activation: Rat, Liver, S9, Aroclor 1254, Method: Preincubation active; positive

Cc1cc2c(c3ccc4ccccc4c13)[C@@H]1O[C@@H]1[C@H](O)[C@H]2O
active: [1] active; positive

COc1cc(C(=O)OCCCN2CCCN(CCCOC(=O)c3cc(OC)c(OC)c(OC)c3)CC2)cc(OC)c1OC
inactive: [2] inactive; negative | Test System: AMES SALMONELLA TYPHIMURIUM, Strain/Indicator: TA98, Metabolic Activation: RAT, LIVER, S-9, PHENOBARBITAL AND 5,6-BENZOFLAVONE inactive; negative | Test System: AMES SALMONELLA TYPHIMURIUM, Strain/Indicator: TA100, Metabolic Activation: NONE inactive; negative | Test System: AMES SALMONELLA TYPHIMURIUM, Strain/Indicator: TA100, Metabolic Activation: RAT, LIVER, S-9, PHENOBARBITAL AND 5,6-BENZOFLAVONE inactive; negative | Test System: AMES SALMONELLA TYPHIMURIUM, Strain/Indicator: TA1535, Metabolic Activation: NONE inactive; negative | Test System: AMES SALMONELLA TYPHIMURIUM, Strain/Indicator: TA1535, Metabolic Activation: RAT, LIVER, S-9, PHENOBARBITAL AND 5,6-BENZOFLAVONE inactive; negative | Test System: AMES SALMONELLA TYPHIMURIUM, Strain/Indicator: TA1537, Metabolic Activation: NONE inactive; negative | Test System: AMES SALMONELLA TYPHIMURIUM, Strain/Indicator: TA1537, Metabolic Activation: RAT, LIVER, S-9, PHENOBARBITAL AND 5,6-BENZOFLAVONE inactive; negative | Test System: E. COLI, Strain/Indicator: WP2 UVRA, Metabolic Activation: NONE inactive; negative | Test System: E. COLI, Strain/Indicator: WP2 UVRA, Metabolic Activation: RAT, LIVER, S-9, PHENOBARBITAL AND 5,6-BENZOFLAVONE inactive; negative

N=c1ccc2c(-c3ccccc3C(=O)O)c3ccc(N)cc3oc-2c1
inactive: Test System: AMES SALMONELLA TYPHIMURIUM, Strain/Indicator: TA1538, Metabolic Activation: NONE, Method: STANDARD PLATE inactive; negative | Test System: AMES SALMONELLA TYPHIMURIUM, Strain/Indicator: TA1538, Metabolic Activation: RAT, LIVER, S-9, AROCLOR 1254, Method: STANDARD PLATE inactive; negative

COc1ccc(-c2nc(-c3ccc(OC)cc3)c(-c3ccc(OC)cc3)[nH]2)cc1
inactive: Test System: AMES SALMONELLA TYPHIMURIUM, Strain/Indicator: TA98, Metabolic Activation: RAT LIVER S-9, 3-METHYLCHOLANTHRENE, SODIUM PHENOBARBITAL, Method: STANDARD PLATE inactive; negative | [4] inactive; negative | Test System: AMES SALMONELLA TYPHIMURIUM, Strain/Indicator: TA100, Metabolic Activation: RAT LIVER S-9, 3-METHYLCHOLANTHRENE, SODIUM PHENOBARBITAL, Method: STANDARD PLATE inactive; negative
active: [3] active; positive

CCCCOCCOC(=O)COc1ccc(Cl)cc1Cl
inactive: [5] inactive; negative | Test System: AMES SALMONELLA TYPHIMURIUM, Strain/Indicator: TA98, Metabolic Activation: RAT LIVER S-9, AROCLOR 1254, 10%, Method: PREINCUBATION inactive; negative | [1] inactive; negative | Test System: AMES SALMONELLA TYPHIMURIUM, Strain/Indicator: TA100, Metabolic Activation: RAT LIVER S-9, AROCLOR 1254, 10%, Method: PREINCUBATION inactive; negative | Test System: AMES SALMONELLA TYPHIMURIUM, Strain/Indicator: TA1535, Metabolic Activation: NONE, Method: PREINCUBATION inactive; negative | Test System: AMES SALMONELLA TYPHIMURIUM, Strain/Indicator: TA1535, Metabolic Activation: RAT LIVER S-9, AROCLOR 1254, 10%, Method: PREINCUBATION inactive; negative | Test System: AMES SALMONELLA TYPHIMURIUM, Strain/Indicator: TA1537, Metabolic Activation: NONE, Method: PREINCUBATION inactive; negative | Test System: AMES SALMONELLA TYPHIMURIUM, Strain/Indicator: TA1537, Metabolic Activation: RAT LIVER S-9, AROCLOR 1254, 10%, Method: PREINCUBATION inactive; negative | Test System: UDS RAT HEPATOCYTES, Strain/Indicator: THYMIDINE INCORPORATION, Metabolic Activation: NONE, Method: AUTORADIOGRAPHY inactive; negative

O=[N+]([O-])c1ccc2ccc3c4ccccc4cc4ccc1c2c43
active: Test System: AMES SALMONELLA TYPHIMURIUM, Strain/Indicator: TA98(1,8-DNP6), Metabolic Activation: NONE active; positive | Test System: AMES SALMONELLA TYPHIMURIUM, Strain/Indicator: TA98 (1,8-DNP6), Metabolic Activation: NONE, Method: STANDARD PLATE active; positive | Test System: AMES SALMONELLA TYPHIMURIUM, Strain/Indicator: TA98(NR), Metabolic Activation: NONE active; positive | Test System: AMES SALMONELLA TYPHIMURIUM, Strain/Indicator: TA98(NR), Metabolic Activation: NONE, Method: PREINCUBATION active; positive | [2] active; positive | Test System: AMES SALMONELLA TYPHIMURIUM, Strain/Indicator: TA98, Metabolic Activation: NONE', Method: STANDARD PLATE active; positive | [5] active; positive | [3] active; positive | Test System: AMES SALMONELLA TYPHIMURIUM, Strain/Indicator: TA98, Metabolic Activation: NONE, Method: STANDARD PLATE (ANAEROBIC) active; positive | Test System: AMES SALMONELLA TYPHIMURIUM, Strain/Indicator: TA98, Metabolic Activation: RAT, LIVER, HEPATOCYTES, AROCLOR 1254 active; positive | Test System: AMES SALMONELLA TYPHIMURIUM, Strain/Indicator: TA98, Metabolic Activation: RAT, LIVER, S-9, AROCLOR 1254 active; positive | [4] active; positive | Test System: CHINESE HAMSTER OVARY, Strain/Indicator: CHO-K1-BH4 (HGPRT), Metabolic Activation: RAT, LIVER, S-9, 3-METHYLCHOLANTHRENE active; positive | Test System: CHO/HGPRT, Strain/Indicator: CHO-K1-BH4, Metabolic Activation: RAT, LIVER, S-9, 3-METHYLCHOLANTHRENE active; positive | Test System: CHO/HGPRT, Strain/Indicator: CHO-K1-BH4, Metabolic Activation: RAT, LIVER, S-9, AROCLOR 1254 active; positive
inactive: Test System: AMES SALMONELLA TYPHIMURIUM, Strain/Indicator: TA98 (NR), Metabolic Activation: NONE, Method: STANDARD PLATE inactive; negative | Test System: CHINESE HAMSTER OVARY, Strain/Indicator: CHO-K1-BH4 (HGPRT), Metabolic Activation: NONE inactive; negative | Test System: CHO/HGPRT, Strain/Indicator: CHO-K1-BH4, Metabolic Activation: NONE inactive; negative | Test System: CHO/HGPRT, Strain/Indicator: CHO-K1-BH4, Metabolic Activation: RAT, LIVER, HEPATOCYTES inactive; negative | Test System: CHO/HGPRT, Strain/Indicator: CHO-K1-BH4, Metabolic Activation: RAT, LIVER, HEPATOCYTES, 3-METHYLCHOLANTHRENE inactive; negative | Test System: CHO/HGPRT, Strain/Indicator: CHO-K1-BH4, Metabolic Activation: RAT, LIVER, HEPATOCYTES, AROCLOR 1254 inactive; negative | Test System: CHO/HGPRT, Strain/Indicator: CHO-K1-BH4, Metabolic Activation: RAT, LIVER, S-9 inactive; negative

Oc1cccc2sc3ccccc3c12
active: Test System: CHINESE HAMSTER OVARY, Strain/Indicator: CHO-K1-BH4 (HGPRT)/6-THIOGUANINE, Metabolic Activation: RAT, LIVER, S-9, AROCLOR (4%) active; positive
